Values of other authors in patent publication US7888378B2, “Thiadiazole compounds and uses thereof” (Mallinckrodt Inc., priority 2006, dated 2011).

Tested on: tumors
Settings: after administering the substance

NCC(=O)CCC(=O)O [delta-aminolevulinic acid]
uptake of porphyrins in tumors compared to normal tissues: two-fold
